Source: the supplement of paper PMC10307832

Key:
Test in all cases: relative viability (nuclei count vs DMSO), 5 days (fraction); higher = more cells survive
Sulindac + Vorinostat = compound: CC1=C(CC(=O)O)c2cc(F)ccc2/C1=C\c1ccc([S+](C)[O-])cc1 [Sulindac] + O=C(CCCCCCC(=O)Nc1ccccc1)NO [Vorinostat] (partner 1 µM)
Outline: (§1)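 Relative viability is defined as nuclei in treated wells over nuclei in vehicle wells. Duplicate plates were run and medians reported. Lung cancer cell lines in 1536-well plates were dosed by pin tool one day after seeding, with one drug or with a fixed anchor-drug dose plus five library-drug doses (not always all listed) in √10 steps, and nuclei were counted after 5 days.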

[1] = compound: O=c1[nH]cc(F)c(=O)[nH]1 [5-Fluorouracil] + O=C(c1cc(Cc2n[nH]c(=O)c3ccccc23)ccc1F)N1CCN(C(=O)C2CC2)CC1 [Olaparib] (partner 8 µM)
Outline: as §1

Sulindac + Crizotinib = compound: CC1=C(CC(=O)O)c2cc(F)ccc2/C1=C\c1ccc([S+](C)[O-])cc1 [Sulindac] + C[C@@H](Oc1cc(-c2cnn(C3CCNCC3)c2)cnc1N)c1c(Cl)ccc(F)c1Cl [Crizotinib] (partner 1 µM)
Outline: as §1

[2] = compound: O=c1[nH]cc(F)c(=O)[nH]1 [5-Fluorouracil] + CC1(C)CCC(c2ccc(Cl)cc2)=C(CN2CCN(c3ccc(C(=O)NS(=O)(=O)c4ccc(N[C@H](CCN5CCOCC5)CSc5ccccc5)c(S(=O)(=O)C(F)(F)F)c4)cc3)CC2)C1 [Navitoclax] (partner 0.5 µM)
Outline: as §1

Row | Cell Line | relative viability (Sulindac + Vorinostat; first compound 0.08 µM) | relative viability (Sulindac + Vorinostat; first compound 0.253 µM) | relative viability (Sulindac + Vorinostat; first compound 0.8 µM) | relative viability (Sulindac + Vorinostat; first compound 2.53 µM) | relative viability (Sulindac + Vorinostat; first compound 8 µM) | relative viability ([1]; first compound 0.02 µM) | relative viability ([1]; first compound 0.2 µM) | relative viability ([1]; first compound 0.6325 µM) | relative viability ([1]; first compound 2 µM) | relative viability (Sulindac + Crizotinib; first compound 0.08 µM) | relative viability (Sulindac + Crizotinib; first compound 0.253 µM) | relative viability (Sulindac + Crizotinib; first compound 0.8 µM) | relative viability (Sulindac + Crizotinib; first compound 2.53 µM) | relative viability (Sulindac + Crizotinib; first compound 8 µM) | relative viability ([2]; first compound 0.02 µM) | relative viability ([2]; first compound 0.2 µM) | relative viability ([2]; first compound 0.6325 µM) | relative viability ([2]; first compound 2 µM)
1 | NCI-H1734 | 0.844 | 0.826 | 0.664 | 0.78 | 1.05 | 0.586 | 0.667 | 0.53 | 0.393 | 0.658 | 0.754 | 0.583 | 0.703 | 0.787 | 0.795 | 0.932 | 0.765 | 0.428
2 | LCLC-97TM1 | 1.01 | 0.86 | 0.453 | 0.729 | 0.94 | 0.334 | 0.363 | 0.257 | 0.232 | 0.435 | 0.373 | 0.319 | – | 0.418 | 0.463 | 0.525 | 0.222 | 0.212
3 | NCI-H2170 | 0.937 | 0.741 | 0.69 | 0.833 | 0.924 | 0.597 | 0.545 | 0.339 | 0.289 | 1.21 | 1.21 | 0.771 | 1.2 | 1.23 | 0.573 | 0.557 | 0.351 | 0.31
4 | NCI-H322M | 0.859 | 0.914 | 0.882 | 0.916 | 0.863 | 0.838 | 0.764 | 0.618 | 0.531 | 1.02 | 1.05 | 0.687 | 1.03 | 1.05 | 1.29 | 1.07 | 0.853 | 0.693
5 | RERF-LC-KJ | 0.687 | 0.823 | 0.597 | 0.78 | 0.734 | 0.985 | 0.829 | 0.878 | 0.763 | 0.816 | 0.903 | 0.853 | 0.891 | 0.914 | 0.834 | 0.971 | 1.01 | 0.554
6 | EPLC-272H | 0.465 | 0.341 | 0.68 | 0.339 | 0.424 | 0.737 | 0.67 | 0.32 | 0.21 | 0.932 | – | 0.948 | 0.551 | 0.977 | 1.18 | 0.79 | 0.372 | 0.259
7 | A-427 | 0.829 | 0.84 | 0.953 | 0.84 | 0.995 | 0.68 | 0.521 | 0.674 | 0.385 | 0.892 | 0.888 | 0.881 | 0.894 | 0.896 | 0.827 | 0.999 | 0.879 | 0.438
